Measured values: US12611398B2 (ORPHAI THERAPEUTICS INC., priority 2014, dated 2026)
Values joined by “and” are separate entries in the source; they are usually repeats but may differ in a detail not shown here. Equal values may be shown once. “Also recorded” adds a separate entry of the source. Read-outs that look alike come from different tables or passages of the source.

Key:
[1] = 24 hours after 14th dose, cited from earlier work
[2] = Rapamycin in lung and blood after oropharyngeal aspiration (OPA) and oral gavage, LC-MS/MS; type: in vivo, C57BL/6 mice
Protocol: Dosing: Each animal was weighed prior to dosing to determine the amount of dose to be administered. A single gavage dose was administered using a 100-μL glass syringe (Hamilton, Reno, Nev.) fitted with a ball-tipped 20-G stainless steel gavage dosing needle (Popper & Sons Inc., New Hyde Park, N.Y.). The dose administered to each animal was determined from the weight of the full syringe minus that of the empty syringe. The dosing time was recorded. Dosing of animals was spaced apart to allow blood collection at the appropriate times. The dose formulations administered to each group are shown below.
Each mouse was anesthetized with isoflurane and restrained with the mouth open. The tongue was held to one side of the mouth with forceps, and the dose was slowly injected into the distal part of the oral cavity. The nostrils were covered with a finger for two breaths to ensure aspiration (Rao et al., 2003).
Collection of Blood and Lung Samples: At study termination (1 or 72 h after dosing), mice were anesthetized by exposure to CO2, and blood was collected by cardiac puncture with dipotassium EDTA as anticoagulant. Lung tissue was excised and divided into the right and left lung. The left lung was used for analysis, and the right lung flash frozen in liquid nitrogen and stored at −70° C. for further analysis.
Triamcinolone was used as internal standard.
Lung homogenate was prepared by homogenization of weighed lung samples with 2.8-mm ball bearings in a homogenizer with tissue+deionized water (1:3 w/v) in a SPEX SamplePrep 2010 Geno/Grinder.
The concentrations of standards were arranged so that each standard came from an alternate stock standard. A six-point calibration curve, each made in triplicate, was employed for analyte quantitation. A simple linear regression model with or without weighting was employed for curve fitting. The concentration range determined was from 1-2000 ng/mL in blood and 2-2000 ng/mL in lung homogenate.
Thirty (30) μL of matrix, 30 μL of spiking solution (methanol for blanks and samples), 10 μL Internal standard solution (in MeOH) and 90 μL of MeOH were pipetted into microcentrifuge tubes, vortexed briefly, then centrifuged for 6 min at 10,000 RPM at −4° C. Aliquots (90 μL) of supernatant were transferred to LC vial inserts, and then analyzed by LC-MS/MS (Table 2).

[3] = 28-day repeat daily dose inhalation toxicity and toxicokinetics, dog study 7300227; details: beagle, in vivo
Excerpt: For the dog study, a positive flow delivery system (PFDS) consisting of a central plenum and delivery arms was utilized. The central plenum was of modular design with separate ports into which were attached 5 delivery arms fitted with oronasal exposure masks fitted with inlet and outlet tubes. The mask was fitted over the dog's muzzle in such a way that the nose was inside the mask, allowing entrance and exit of air. During exposure, animals wore a harness and were placed on a restraint platform. The harness was attached to two side poles on the platform in order to restrict lateral movement of the dog. The front part of the harness was loosely attached to a hook on the front of the platform to prevent the animal from turning around. […] For each dosing group, one set of animals (N=6) was dosed for 60 minutes each day for 28 consecutive days.

[4] = in vivo; details: Sprague-Dawley, rat
Protocol: (§1) A second repeat exposure study was conducted to evaluate the repeat dose toxicity and toxicokinetics of the dry powder formulation administered to SD rats and Beagle dogs for 28 days.
(§2) For the rat study, standard cylindrical flow-through nose-only inhalation chambers were utilized, as above. […] For each of the three dosing groups, one set of animals (N=36) were dosed for 300 minutes each day for 28 consecutive days. On Study Days 1 and 28, blood samples were taken from animals in subgroups of 6 at the following time points: (1) Predose, (2) Midway dosing, (3) Immediate post dosing, (4) 2 hours post dosing, (5) 4 hours post dosing, (6) 12 hours post dosing and (7) 24 hours post dosing.

[5] = Observation for adverse effects / clinical signs after dosing; type: in vivo, C57BL/6 mice; details: 1 mg/kg, up to 72 h following dosing
Protocol: The oral dose was formulated using pharmaceutical oral liquid formulation Rapamune Oral® (Pfizer). […] An additional group of 6 mice received vehicle only (10% ethanol in water). […] At the 72-h necropsy, blood was obtained by cardiac puncture and the lungs removed.
The time of dosing was recorded as 0. Animals in groups 2 and 3 were euthanized at 1 h after dosing.

[6] = lymphangioleiomyomatosis patients, McCormack et al. (2011); cited from earlier work
[7] = test system: Phospho-S6 Ribosomal Protein (Ser240/244); assay: S6 phosphorylation in rat lung homogenate, western blot (S6-P/total S6); type: in vivo, Sprague-Dawley rats; details: inhalation, target dose 0.354 mg/kg
Protocol: Lungs samples from each animal were collected and snap frozen. The individual frozen lung samples were homogenized (Qiagen TissueLyser LT according to manufacturer's protocols) in 1×RIPA Buffer with protease and phosphatase inhibitors. […] The Western blot images were analyzed by NIH image) v1.48 to generate the respective antibody reactivity/intensity and create the ratio of S6 phosphorylation (S6-P) to total S6 intensities for each lung sample. The 56-P/total S6 ratios (y-axis) for sample organized by timepoint group (X-axis) were plotted on a one grouping variable scatter plot vertical graph (GraphPad, version 4.0), all samples in groups are represented by filled in black dots (●) on the graph and average is shown by the horizontal line between the dots within each respective group (FIG. 8B).

[8] = IV 10 mg/kg single dose, 24 hours; cited from earlier work
[9] = test system: TSC2 deficient TRI-AML101 cell line; assay: Cell viability, CellTiter-Glo luminescence assay, 10 point dose response; details: 72 hours after compound addition, relative to DMSO control
Protocol: Two thousand cells in 50 uL of growth media (DMEM, 10% FBS, and 1% Penicillin/Streptomycin) were plated per well in a 96 well plate. […] 72 hours after compound addition, relative cell viability was determined by CellTiter-Glo® luminescence assay (Promega) and expressed as a percentage relative to vehicle (DMSO) treated control cells.

[10] = test system: phosphorylated S6 (mTOR pathway); assay: S6 phosphorylation by western blot in AML cells; type: cell-based, human; details: 20 nM, 24 hours
[11] = Extrapolation of rat and dog inhalation data to human dosing; details: extrapolated
[12] = human, Rapamune NDA 21-110 and 21-083; cited from earlier work
[13] = test system: phosphorylated S6 protein (biomarker for mTOR activity); assay: S6 phosphorylation in mouse lung following oral and OPA administration; type: in vivo, C57bl/6 mice
Excerpt: To validate this approach, we used the presence of phosphorylated S6 protein in murine lung tissue as a biomarker for mTOR activity. In the mouse strain used (C57b1/6), the mouse airway and alveolar epithelial cells have constitutively active (phosphorylated, “p”) S6 protein. The S6 protein is typically phosphorylated by S6K which is downstream of mTORC1 and is activated, for example downstream of growth factors such as epidermal growth factor (EGF), AKT, ERK, and RSK. mTORC1 promotes cell growth and proliferation by stimulating anabolic processes such as biosynthesis of lipids, proteins, and organelles, and suppressing catabolic processes such as autophagy.

[14] = Particle size distribution by laser diffraction; type: physicochemical
Protocol: For jet milling, a lab scale MCOne unit from Jetpharma was used with the following operating conditions: venturi pressure 2-4 bar, milling pressure 3-5 bar, feed rate 90 g/h. For wet polishing, feed suspensions were prepared using purified water. A microfluidics high pressure homogenizer was used for the size reduction step and the resulting suspension was spray-dried. Details of the wet polishing process are set forth below.
The high pressure homogenizer used for the size reduction step of the wet polishing process was a pilot-scale Microfluidics High Pressure Homogenizer equipped with an auxiliary processing module (200 micron) and a 100 micron interaction chamber was used. The unit was operated at ˜455 bar (˜30 bar in the intensifier module hydraulic pressure). After microfluidization the fluid was removed by spray drying to generate a dry powder. A laboratory scale spray dryer, SD45 (BÜCHI, model B-290 Advanced) was equipped with a two fluid nozzle (cap and diameter were 1.4 and 0.7 mm, respectively). Two cyclones in series were used (being the first the standard Buchi cyclone and the second the high-performance Buchi cyclone) to collect the dried product. The spray drying unit was operated with nitrogen and in single pass mode, i.e. without recirculation of the drying nitrogen. The aspirator, blowing nitrogen, was set at 100% of its capacity (flow rate at maximum capacity is approximately 40 kg/h). The flow rate of the atomization nitrogen was adjusted to a value in the rotameter of 40±5 mm. Before feeding the product suspension, the spray dryer was stabilized with purified water, during which the flow rate was adjusted to 6 ml/min (20% in the peristaltic pump). The inlet temperature was adjusted to achieve the target outlet temperature (45° C.). After stabilization of the temperatures, the feed of the spray dryer was commuted from purified water to the product suspension (keeping the same flow rate used during stabilization) and the inlet temperature once again adjusted in order to achieve the target outlet temperature. At the end of the stock suspension, the feed was once more commuted to purified water in order to rinse the feed line and perform a controlled shut down. The dry product in the collection flasks under both cyclones was weighed and the yield calculated as the mass percentage of the dry product in relation to the total solids in the suspension fed to the high pressure homogenizer.
Particle size distribution was analyzed by laser diffraction. Solid state characterization (for polymorphic form and purity) was performed by high pressure liquid chromatography (HPLC), X-ray powder diffraction (XRPD), and differential scanning calorimetry (mDSC). Water content was determined by the Karl Fischer method.

[15] = 28-day repeat daily dose inhalation toxicity and toxicokinetics, rat study 7300225; details: for Max blood levels: rat, average of D28
Protocol: as §1, §2

[16] = 2012 meta-analysis of published trials; cited from earlier work
[17] = emitted dose 87 ug, repeat inhaled daily dose 35 ug
[18] = emitted dose 175 ug, repeat inhaled daily dose 70 ug

CO[C@H]1C[C@@H]2CC[C@@H](C)[C@@](O)(O2)C(=O)C(=O)N2CCCC[C@H]2C(=O)O[C@H]([C@H](C)C[C@@H]2CC[C@@H](O)[C@H](OC)C2)CC(=O)[C@H](C)/C=C(\C)[C@@H](O)[C@@H](OC)C(=O)[C@H](C)C[C@H](C)/C=C/C=C/C=C/1C [Rapamycin]
Rapamycin in Blood ([1]; IV 0.04 mg/kg/day): 9.4 ng/mL
Rapamycin in Lung ([1]; IV 0.04 mg/kg/day): 219 ng/g
Rapamycin in Blood ([1]; IV 0.08 mg/kg/day): 15.0 ng/mL
Rapamycin in Lung ([1]; IV 0.08 mg/kg/day): 457 ng/g
Rapamycin in Blood ([1]; IV 0.40 mg/kg/day): 19.6 ng/mL
Rapamycin in Lung ([1]; IV 0.40 mg/kg/day): 868 ng/g
Rapamycin in Blood ([1]; oral 0.4 mg/kg/day): 0.8 ng/mL
Rapamycin in Lung ([1]; oral 0.4 mg/kg/day): 42 ng/g
Rapamycin in Blood ([1]; oral 0.8 mg/kg/day): 2.1 ng/mL
Rapamycin in Lung ([1]; oral 0.8 mg/kg/day): 59 ng/g
Rapamycin in Blood ([2]; OPA 1 mg/kg, 72 h): below the limit of quantitation; also recorded: undetectable
Blood concentration ([2]; OPA 1 mg/kg, 72 h post-dose, individual animal): <ELOQ
Lung concentration ([2]; gavage (Rapamune Oral) 1 mg/kg, 1 h post-dose, individual animal, 1 mg/kg): <LOQ
rapamycin in lung or blood ([2]; oral (gavage) 1 mg/kg, 72 hrs): undetectable
NOAEL at 28 days [3]: 0.0134 mg/kg/day
NOAEL at 28 days [4]: 8.91 mg/kg/day
adverse effects / clinical signs [5]: No adverse effects were observed; also recorded: No significant clinical signs were observed
blood concentrations [6]: 5 to 15 ng/mL
S6 phosphorylation in lung tissue [7]: Inhibits S6 Phosphorylation
Rapamycin in Blood [8]: 31 ng/mL
Rapamycin in Lung [8]: 721 ng/g
lowest concentration inhibiting viability [9]: 0.05 nM
S6 phosphorylation [10]: potently inhibits S6 phosphorylation
Blood trough levels [11, 17]: 0.15 ng/mL
Lung 24 hr trough levels [11, 17]: 2 ng/g
Max blood levels [11, 17]: 0.65 ng/mL
Blood trough levels [11, 18]: 0.3 ng/mL
Lung 24 hr trough levels [11, 18]: 4 ng/g
Max blood levels [11, 18]: 1.3 ng/mL
clearance [12]: 0.0003 min⁻¹
level of phosphorylated S6 (pS6) in lung ([13]; 1 mg/kg OPA, 1 hr): reduced substantially
level of phosphorylated S6 (pS6) in lung ([13]; 1 mg/kg OPA, 72 hr): remained suppressed
level of phosphorylated S6 (pS6) in lung ([13]; 1 mg/kg oral gavage, 1 hr): reduced substantially
PSD Dv10 ([14]; jet milling): 1.5 μm and 1.51 μm
PSD Dv50 ([14]; jet milling): 2.7 μm and 2.74 μm
PSD Dv90 ([14]; jet milling): 4.9 μm and 4.91 μm
PSD Dv10 ([14]; wet polishing): 1.0 μm and 1.05 μm
PSD Dv50 ([14]; wet polishing): 2.4 μm and 2.42 μm
PSD Dv90 ([14]; wet polishing): 5.0 μm and 4.97 μm
respiratory function ([15]; nose-only inhalation): no changes in respiratory function
Max blood levels ([15]; emitted dose 50 ug, repeat inhaled daily dose 5 ug): 7.6 ng/mL
Max blood levels ([15]; emitted dose 1425 ug, repeat inhaled daily dose 143 ug): 70.5 ng/mL
Max blood levels ([15]; emitted dose 2850 ug, repeat inhaled daily dose 285 ug): 77.8 ng/mL

CO[C@H]1C[C@@H]2CC[C@@H](C)[C@@](O)(O2)C(=O)C(=O)N2CCCC[C@H]2C(=O)O[C@H]([C@H](C)C[C@@H]2CC[C@@H](OCCO)[C@H](OC)C2)CC(=O)[C@H](C)/C=C(\C)[C@@H](O)[C@@H](OC)C(=O)[C@H](C)C[C@H](C)/C=C/C=C/C=C/1C [everolimus]
cancer patients experiencing mild grade pulmonary toxicity [16]: 10%

CO[C@H]1C[C@@H]2CC[C@@H](C)[C@@](O)(O2)C(=O)C(=O)N2CCCC[C@H]2C(=O)O[C@H]([C@H](C)C[C@@H]2CC[C@@H](OC(=O)C(C)(CO)CO)[C@H](OC)C2)CC(=O)[C@H](C)/C=C(\C)[C@@H](O)[C@@H](OC)C(=O)[C@H](C)C[C@H](C)/C=C/C=C/C=C/1C [temsirolimus]
cancer patients experiencing mild grade pulmonary toxicity [16]: 10%
